Target: KRAS G12D (Homo sapiens, UniProt P01116, G12D)
Test: GDP-GTP exchange assay (KRAS_G12D exchange)
Format: biochemical
Conditions: bodipy loaded KRAS G12D 2.5 nM; 4 hours incubation after GppNHp-SOS1; read-out: G12D_exchange
Protocol: Example A. GDP-GTP Exchange Assay
The inhibitor potency of the exemplified compounds was determined in a fluorescence based guanine nucleotide exchange assay, which measures the exchange of bodipy-GDP (fluorescently labeled GDP) for GppNHp (Non-hydrolyzable GTP analog) to generate the active state of KRAS in the presence of SOS1 (guanine nucleotide exchange factor). Inhibitors were serially diluted in DMSO and a volume of 0.1 μL was transferred to the wells of a black low volume 384-well plate. 5 μL/well volume of bodipy-loaded KRAS G12C diluted to 5 nM in assay buffer (25 mM Hepes pH 7.5, 50 mM NaCl, 10 mM MgCl2 and 0.01% Brij-35) was added to the plate and pre-incubated with inhibitor for 2 hours at ambient temperature. Appropriate controls (enzyme with no inhibitor or with a G12C inhibitor (AMG-510)) were included on the plate. The exchange was initiated by the addition of a 5 μL/well volume containing 1 mM GppNHp and 300 nM SOS1 in assay buffer. The 10 μL/well reaction concentration of the bodipy-loaded KRAS G12C, GppNHp, and SOS1 were 2.5 nM, 500 uM, and 150 nM, respectively. The reaction plates were incubated at ambient temperature for 2 hours, a time estimated for complete GDP-GTP exchange in the absence of inhibitor. For the KRAS G12D and G12V mutants, similar guanine nucleotide exchange assays were used with 2.5 nM as final concentration for the bodipy loaded KRAS proteins and with 4 hours and 3 hours incubation after adding GppNHp-SOS1 mixture for G12D and G12V respectively. A cyclic peptide described to selectively bind G12D mutant (Sakamoto et al., BBRC 484.3 (2017), 605-611) or internal compounds with confirmed binding were used as positive controls in the assay plates. Fluorescence intensities were measured on a PheraStar plate reader instrument (BMG Labtech) with excitation at 485 nm and emission at 520 nm.
Either GraphPad prism or XLfit was used to analyze the data. The IC50 values were derived by fitting the data to a four parameter logistic equation producing a sigmoidal dose-response curve with a variable Hill coefficient. Prism equation: Y=Bottom+(Top−Bottom)/(1+10^((Log lC50−X)*Hill slope)); XLfit equation: Y=(A+((B−A)/(1+((X/C)^D)))) where X is the logarithm of inhibitor concentration and Y is the response.

KRAS G12D, sequence (P01116 1-188 isoform P01116-2 G12D): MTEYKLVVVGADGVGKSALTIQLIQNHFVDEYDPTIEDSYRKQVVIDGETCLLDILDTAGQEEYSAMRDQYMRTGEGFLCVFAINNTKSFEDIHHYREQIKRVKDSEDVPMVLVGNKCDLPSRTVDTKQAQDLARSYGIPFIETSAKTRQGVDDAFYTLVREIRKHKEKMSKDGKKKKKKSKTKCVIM

Compound	IC50
CN(C)C1CN(c2nc3c(F)c(-c4cc(O)cc5ccccc45)c(C#N)cc3c3c2ncn3[C@H]2[C@H]3CN[C@@H]2C3)C1 (relative stereo) [Example 50, 1-((endo)-2-azabicyclo[2.1.1]hexan-5-yl)-4-(3-(dimethylamino)azetidin-1-yl)-6-fluoro-7-(3-hydroxynaphthalen-1-yl)-1H-imidazo[4,5-c]quinoline-8-carbonitrile]	100 to 1000 nM
CN(C)C1CN(c2nc3c(F)c(-c4cc(O)cc5ccccc45)c(Cl)cc3c3c2nc(CC2CCNCC2)n3[C@H]2[C@H]3CN[C@@H]2C3)C1 (relative stereo) [Example 77, 4-(1-((endo)-2-azabicyclo[2.1.1]hexan-5-yl)-8-chloro-4-(3-(dimethylamino)azetidin-1-yl)-6-fluoro-2-(piperidin-4-ylmethyl)-1H-imidazo[4,5-c]quinolin-7-yl)naphthalen-2-ol]	1000 to 5000 nM
CN(C)C1CN(c2nc3c(F)c(-c4cc(O)cc5ccccc45)c(Cl)cc3c3c2nc(C2CCS(=O)(=O)CC2)n3[C@H]2[C@H]3CN[C@@H]2C3)C1 (relative stereo) [Example 79, 4-(1-((endo)-2-azabicyclo[2.1.1]hexan-5-yl)-8-chloro-4-(3-(dimethylamino)azetidin-1-yl)-6-fluoro-7-(3-hydroxynaphthalen-1-yl)-1H-imidazo[4,5-c]quinolin-2-yl)tetrahydro-2H-thiopyran 1,1-dioxide]	100 to 1000 nM
CN(C)C1CN(c2nc3c(F)c(-c4cc(O)cc5ccc(Cl)cc45)c(Cl)cc3c3c2ncn3[C@H]2[C@H]3CN[C@@H]2C3)C1 (single isomer, unassigned) [Example 23a, 4-(1-((endo)-2-azabicyclo[2.1.1]hexan-5-yl)-8-chloro-4-(3-(dimethylamino)azetidin-1-yl)-6-fluoro-1H-imidazo[4,5-c]quinolin-7-yl)-6-chloronaphthalen-2-ol]	100 to 1000 nM
CN(C)C1CN(c2nc3c(F)c(-c4cc(O)cc5ccccc45)c(-c4cn[nH]c4)cc3c3c2ncn3[C@H]2[C@H]3CN[C@@H]2C3)C1 (single isomer, unassigned) [Example 25a, 4-(1-((endo)-2-azabicyclo[2.1.1]hexan-5-yl)-4-(3-(dimethylamino)azetidin-1-yl)-6-fluoro-8-(1H-pyrazol-4-yl)-1H-imidazo[4,5-c]quinolin-7-yl)naphthalen-2-ol]	5000 to 10000 nM
Cc1cc2c(nc(N3CC(N(C)C)C3)c3ncn([C@H]4[C@H]5CN[C@@H]4C5)c32)c(F)c1-c1cc(O)cc2ccccc12 (single isomer, unassigned) [Example 34a, 4-(1-((endo)-2-azabicyclo[2.1.1]hexan-5-yl)-4-(3-(dimethyl-amino)azetidin-1-yl)-6-fluoro-8-methyl-1H-imidazo[4,5-c]quinolin-7-yl)naphthalen-2-ol]	100 to 1000 nM
Oc1cc(-c2c(Cl)cc3c(nc(N4C5CCC4CNC5)c4ncn([C@H]5[C@H]6CN[C@@H]5C6)c43)c2F)c2ccccc2c1 (single isomer, unassigned) [Example 35a, 4-(1-((endo)-2-azabicyclo[2.1.1]hexan-5-yl)-4-(3,8-diazabicyclo[3.2.1]octan-8-yl)-8-chloro-6-fluoro-1H-imidazo[4,5-c]quinolin-7-yl)naphthalen-2-ol]	1000 to 5000 nM
CN(C)C1CN(c2nc3c(F)c(-c4cc(O)cc5ccccc45)c(Cl)cc3c3c2ncn3[C@H]2[C@H]3CN[C@@H]2C3)C1 (single isomer, unassigned) [Example 48a, 4-(1-((endo)-2-azabicyclo[2.1.1]hexan-5-yl)-8-chloro-4-(3-(dimethylamino)azetidin-1-yl)-6-fluoro-1H-imidazo[4,5-c]quinolin-7-yl)naphthalen-2-ol]	100 to 1000 nM

Other lines, results leading:

IC50	Compound
5000 to 10000 nM	CN(C)Cc1nc2c(N3CC(N(C)C)C3)nc3c(F)c(-c4cc(O)cc5ccccc45)c(Cl)cc3c2n1[C@H]1[C@H]2CN[C@@H]1C2 (racemic) [Example 49, 4-(1-((endo)-2-azabicyclo[2.1.1]hexan-5-yl)-8-chloro-4-(3-(dimethylamino)-azetidin-1-yl)-2-((dimethylamino)methyl)-6-fluoro-1H-imidazo[4,5-c]quinolin-7-yl)naphthalen-2-ol]
100 to 1000 nM	CN(C)C(=O)CCc1nc2c(N3CC(N(C)C)C3)nc3c(Cc4ccccc4)c(-c4cc(O)cc5ccccc45)c(CCC#N)cc3c2n1[C@@H]1[C@@H]2CN[C@H]1C2 (racemic) [Example 294, 3-(6-benzyl-1-((endo)-2-azabicyclo[2.1.1]hexan-5-yl)-8-(2-cyanoethyl)-4-(3-(dimethylamino)azetidin-1-yl)-7-(3-hydroxynaphthalen-1-yl)-1H-imidazo[4,5-c]quinolin-2-yl)-N,N-dimethylpropanamide]
100 to 1000 nM	CN(C)C1CN(c2nc3c(F)c(-c4cc(O)cc5ccccc45)c(Cl)cc3c3c2nc(CO)n3[C@H]2[C@H]3CN[C@@H]2C3)C1 (relative stereo) [Example 75, 4-(1-((endo)-2-azabicyclo[2.1.1]hexan-5-yl)-8-chloro-4-(3-(dimethylamino)-azetidin-1-yl)-6-fluoro-2-(hydroxymethyl)-1H-imidazo[4,5-c]quinolin-7-yl)naphthalen-2-ol]
≤ 100 nM	CN(C)C(=O)CCc1nc2c(N3CC(N(C)C)C3)nc3c(F)c(-c4cccc5ccc(F)cc45)c(CCC#N)cc3c2n1C1C2CNC1C2 (single isomer, unassigned) [Example 291b, 3-(1-((endo)-2-azabicyclo[2.1.1]hexan-5-yl)-8-(2-cyanoethyl)-4-(3-(dimethylamino)azetidin-1-yl)-6-fluoro-7-(7-fluoronaphthalen-1-yl)-1H-imidazo[4,5-c]quinolin-2-yl)-N,N-dimethylpropanamide]
≤ 100 nM	CCc1nc2c(N3CC(N(C)C)C3)nc3c(F)c(-c4cc(O)cc5ccc(F)cc45)c(CCC#N)cc3c2n1C1C2CNC1C2 (single isomer, unassigned) [Example 292b, 3-(1-((endo)-2-azabicyclo[2.1.1]hexan-5-yl)-4-(3-(dimethylamino)azetidin-1-yl)-2-ethyl-6-fluoro-7-(7-fluoro-3-hydroxynaphthalen-1-yl)-1H-imidazo[4,5-c]quinolin-8-yl)propanenitrile]
100 to 1000 nM	CNCCc1nc2c(N3CC(N(C)C)C3)nc3c(F)c(-c4cc(O)cc5ccccc45)c(-c4cn[nH]c4)cc3c2n1C1C2CNC1C2 (single isomer, unassigned) [Example 295b, 4-(1-((endo)-2-azabicyclo[2.1.1]hexan-5-yl)-4-(3-(dimethylamino)azetidin-1-yl)-6-fluoro-2-(2-(methylamino)ethyl)-8-(1H-pyrazol-4-yl)-1H-imidazo[4,5-c]quinolin-7-yl)naphthalen-2-ol]
≤ 100 nM	CCc1nc2c(N3CC(N(C)C)C3)nc3c(F)c(-c4cc(O)cc5ccccc45)c(CCC#N)cc3c2n1C1C2CC1N(Cc1ccc[nH]1)C2 (single isomer, unassigned) [Example 296b, 3-(1-((endo)-2-((1H-pyrrol-2-yl)methyl)-2-azabicyclo[2.1.1]hexan-5-yl)-4-(3-(dimethylamino)azetidin-1-yl)-2-ethyl-6-fluoro-7-(3-hydroxynaphthalen-1-yl)-1H-imidazo[4,5-c]quinolin-8-yl)propanenitrile]

— patent publication US20210269434A1, “TRICYCLIC COMPOUNDS AS INHIBITORS OF KRAS” (Incyte Corporation, priority 2020, published 2021)
